± gives the expanded uncertainty stated by the source.
Experiment: activity coefficient (dimensionless); of the first substance listed, at infinite dilution; xn = mol fraction of the nth substance listed
Settings: 101.33 kPa, Liquid, Chromatography, x1 = 0

SMILES	activity coefficient (323 K)	activity coefficient (338 K)	activity coefficient (353 K)	activity coefficient (308 K)
ClCCCl [1,2-dichloroethane] + CCCCCCCCCC[N+](C)(C)CCCCCCCCCC.F[B-](F)(F)F	0.616 ± 0.065	0.622 ± 0.066	0.682 ± 0.071	
ClCCCl [1,2-dichloroethane] + CCCCCCCCCC[N+](C)(C)CCCCCCCCCC.[O-][Cl+3]([O-])([O-])[O-]	0.464 ± 0.052	0.494 ± 0.055	0.482 ± 0.053	
C=CCCCCC [1-heptene] + CCCCCCCCCC[N+](C)(C)CCCCCCCCCC.F[B-](F)(F)F	1.81 ± 0.19	1.83 ± 0.19	2.23 ± 0.23	1.79 ± 0.19
C=CCCCCC [1-heptene] + CCCCCCCCCC[N+](C)(C)CCCCCCCCCC.[O-][Cl+3]([O-])([O-])[O-]	1.85 ± 0.19	2.23 ± 0.23	2.15 ± 0.23	2.69 ± 0.28
C#CCCCCC [1-heptyne] + CCCCCCCCCC[N+](C)(C)CCCCCCCCCC.F[B-](F)(F)F	0.893 ± 0.091	0.894 ± 0.091	1.12 ± 0.12	0.892 ± 0.091
C#CCCCCC [1-heptyne] + CCCCCCCCCC[N+](C)(C)CCCCCCCCCC.[O-][Cl+3]([O-])([O-])[O-]	1.1 ± 0.11	1.17 ± 0.12	1.18 ± 0.12	1.14 ± 0.12
C#CCCCC [1-hexyne] + CCCCCCCCCC[N+](C)(C)CCCCCCCCCC.F[B-](F)(F)F	0.838 ± 0.086	0.826 ± 0.085	0.937 ± 0.096	0.85 ± 0.087
C#CCCCC [1-hexyne] + CCCCCCCCCC[N+](C)(C)CCCCCCCCCC.[O-][Cl+3]([O-])([O-])[O-]	0.83 ± 0.085	0.989 ± 0.1	0.969 ± 0.099	0.732 ± 0.076
C=CCCC [1-pentene] + CCCCCCCCCC[N+](C)(C)CCCCCCCCCC.F[B-](F)(F)F	1.2 ± 0.12	1.13 ± 0.12	1.26 ± 0.13	1.27 ± 0.13
C=CCCC [1-pentene] + CCCCCCCCCC[N+](C)(C)CCCCCCCCCC.[O-][Cl+3]([O-])([O-])[O-]	1.56 ± 0.16	1.37 ± 0.14	1.31 ± 0.13	1.88 ± 0.2
C/C=C(\C)CC [(E)-3-methyl-2-pentene] + CCCCCCCCCC[N+](C)(C)CCCCCCCCCC.F[B-](F)(F)F	1.71 ± 0.18	1.3 ± 0.13	1.43 ± 0.15	
C/C=C(\C)CC [(E)-3-methyl-2-pentene] + CCCCCCCCCC[N+](C)(C)CCCCCCCCCC.[O-][Cl+3]([O-])([O-])[O-]	1.48 ± 0.15	1.49 ± 0.15	1.32 ± 0.14	
C/C=C/C(C)C [(E)-4-methyl-2-pentene] + CCCCCCCCCC[N+](C)(C)CCCCCCCCCC.F[B-](F)(F)F	1.68 ± 0.17	1.45 ± 0.15	1.57 ± 0.16	
C/C=C/C(C)C [(E)-4-methyl-2-pentene] + CCCCCCCCCC[N+](C)(C)CCCCCCCCCC.[O-][Cl+3]([O-])([O-])[O-]	1.68 ± 0.17	1.72 ± 0.18	1.46 ± 0.15	
CC(C)=O [acetone] + CCCCCCCCCC[N+](C)(C)CCCCCCCCCC.F[B-](F)(F)F	0.991 ± 0.1	0.833 ± 0.086	0.86 ± 0.088	
CC(C)=O [acetone] + CCCCCCCCCC[N+](C)(C)CCCCCCCCCC.[O-][Cl+3]([O-])([O-])[O-]	0.489 ± 0.054	0.537 ± 0.058	0.527 ± 0.057	
CC#N [acetonitrile] + CCCCCCCCCC[N+](C)(C)CCCCCCCCCC.F[B-](F)(F)F	1.21 ± 0.12	1.06 ± 0.11	1.24 ± 0.13	

SMILES	activity coefficient (323 K)	activity coefficient (338 K)	activity coefficient (353 K)	activity coefficient (308 K)
CC#N [acetonitrile] + CCCCCCCCCC[N+](C)(C)CCCCCCCCCC.[O-][Cl+3]([O-])([O-])[O-]	0.543 ± 0.059	0.511 ± 0.056	0.46 ± 0.052	
c1ccccc1 [benzene] + CCCCCCCCCC[N+](C)(C)CCCCCCCCCC.F[B-](F)(F)F	0.499 ± 0.055	0.519 ± 0.057	0.667 ± 0.07	
c1ccccc1 [benzene] + CCCCCCCCCC[N+](C)(C)CCCCCCCCCC.[O-][Cl+3]([O-])([O-])[O-]	0.499 ± 0.055	0.59 ± 0.063	0.527 ± 0.057	
CCCC [butane] + CCCCCCCCCC[N+](C)(C)CCCCCCCCCC.F[B-](F)(F)F	1.12 ± 0.12	1.04 ± 0.1	0.939 ± 0.096	1.21 ± 0.12
CCCC [butane] + CCCCCCCCCC[N+](C)(C)CCCCCCCCCC.[O-][Cl+3]([O-])([O-])[O-]	1.32 ± 0.14	1.28 ± 0.13	1.24 ± 0.13	1.36 ± 0.14
CCC(C)=O [butanone] + CCCCCCCCCC[N+](C)(C)CCCCCCCCCC.F[B-](F)(F)F	1.07 ± 0.11	0.903 ± 0.092	0.82 ± 0.084	
CCC(C)=O [butanone] + CCCCCCCCCC[N+](C)(C)CCCCCCCCCC.[O-][Cl+3]([O-])([O-])[O-]	0.532 ± 0.058	0.59 ± 0.063	0.585 ± 0.063	
C1CCCCCC1 [cycloheptane] + CCCCCCCCCC[N+](C)(C)CCCCCCCCCC.F[B-](F)(F)F	1.61 ± 0.17	1.57 ± 0.16	1.98 ± 0.21	1.65 ± 0.17
C1CCCCCC1 [cycloheptane] + CCCCCCCCCC[N+](C)(C)CCCCCCCCCC.[O-][Cl+3]([O-])([O-])[O-]	2.04 ± 0.21	1.91 ± 0.2	1.78 ± 0.19	2.29 ± 0.24
C1CCCCC1 [cyclohexane] + CCCCCCCCCC[N+](C)(C)CCCCCCCCCC.F[B-](F)(F)F	1.43 ± 0.15	1.4 ± 0.14	1.73 ± 0.18	1.47 ± 0.15
C1CCCCC1 [cyclohexane] + CCCCCCCCCC[N+](C)(C)CCCCCCCCCC.[O-][Cl+3]([O-])([O-])[O-]	1.78 ± 0.19	1.66 ± 0.17	1.54 ± 0.16	2.05 ± 0.21
O=C1CCCCC1 [cyclohexanone] + CCCCCCCCCC[N+](C)(C)CCCCCCCCCC.F[B-](F)(F)F	9.47 ± 1	7.99 ± 0.84	9.05 ± 0.95	
O=C1CCCCC1 [cyclohexanone] + CCCCCCCCCC[N+](C)(C)CCCCCCCCCC.[O-][Cl+3]([O-])([O-])[O-]	11.7 ± 1.2	9.68 ± 1	8.46 ± 0.89	
C1CCCC1 [cyclopentane] + CCCCCCCCCC[N+](C)(C)CCCCCCCCCC.F[B-](F)(F)F	1.17 ± 0.12	1.13 ± 0.12	1.28 ± 0.13	1.21 ± 0.12
C1CCCC1 [cyclopentane] + CCCCCCCCCC[N+](C)(C)CCCCCCCCCC.[O-][Cl+3]([O-])([O-])[O-]	1.16 ± 0.12	1.26 ± 0.13	1.19 ± 0.12	1.48 ± 0.15
CCOCC [diethyl ether] + CCCCCCCCCC[N+](C)(C)CCCCCCCCCC.F[B-](F)(F)F	1.08 ± 0.11	0.769 ± 0.08	0.79 ± 0.081	
